Assay results from patent US20210138025A1, “CATIONIC PEPTIDES WITH IMMUNOMODULATORY AND/OR ANTI-BIOFILM ACTIVITIES” (priority 2018, published 2021).
Non-standard residues stand in square brackets, D forms with d. No end group written: not given here.

Assays:
[1] = system: E. coli O157:H7; assay: Biofilm inhibition, static microtitre plate assay, crystal violet (Table 17); details: BM2 minimal media
[2] = system: Salmonella typhimurium (ATCC 14028); assay: as above; details: BM2 minimal media
[3] = system: S. aureus (methicillin resistant clinical isolate C623); assay: Biofilm inhibition, static microtitre plate assay, crystal violet (Table 17; FIG. 19); details: 10% tryptic soy broth with 0.1% glucose
[4] = system: P. aeruginosa (PAO1); assay: as above; details: BM2 minimal media
[5] = system: Bordatella bronchiseptica (Bb); assay type: cell-based
Experimental: (§1) The following strains were assessed vs. Staphylococcus epidermidis (Se), Pseudomonas aeruginosa (Pa), Streptococcus dysgalactiae (Sd), Pasteurella multocida (Pm), Streptococcus agalactiae (Sa), Streptococcus uberis (Su), Streptococcus suis (Ss), Mannheimia haemolytica (Mh), Bordatella bronchiseptica (Bb), Histophilus somnus (Hs), and Staphylococcus pseudintermedius (Sp) (Table 18) for Minimal Inhibitory Concentrations (MIC). Italics=excellent activity (less than or equal to 4 μg/ml).

[6] = system: Histophilus somnus (Hs); assay type: cell-based
Experimental: as §1

[7] = system: Mannheimia haemolytica (Mh); assay type: cell-based
Experimental: as §1

[8] = system: Pasteurella multocida (Pm); assay type: cell-based
Experimental: as §1

[9] = system: Pseudomonas aeruginosa (Pa); assay type: cell-based
Experimental: as §1

[10] = system: Staphylococcus epidermidis (Se); assay type: cell-based
Experimental: as §1

[11] = system: Staphylococcus pseudintermedius (Sp); assay type: cell-based
Experimental: as §1

[12] = system: Streptococcus agalactiae (Sa); assay type: cell-based
Experimental: as §1

[13] = system: Streptococcus dysgalactiae (Sd); assay type: cell-based
Experimental: as §1

[14] = system: Streptococcus suis (Ss); assay type: cell-based
Experimental: as §1

[15] = system: Streptococcus uberis (Su); assay type: cell-based
Experimental: as §1

[16] = system: E. coli (Ec); assay type: cell-based; details: Ec
[17] = system: S. aureus (Sau); assay type: cell-based; details: Sau
[18] = system: Bordatella bronchiseptica (Bb); assay type: cell-based; remark: listed apart in the source
Experimental: (§2) The same strains as in Table 18 were assessed for Minimal Biofilm Inhibitory Concentrations (MBIC) (Table 19). Italics=excellent activity (less than or equal to 4 μg/ml). ND=Not determined. Peptides 3013, 3015 and 3016 inhibited biofilm growth in the largest number of bacterial strains (5, 5 and 6 out of 13 strains, respectively).

[19] = system: Histophilus somnus (Hs); assay type: cell-based; remark: listed apart in the source
Experimental: as §2

[20] = system: Mannheimia haemolytica (Mh); assay type: cell-based; remark: listed apart in the source
Experimental: as §2

[21] = system: Pasteurella multocida (Pm); assay type: cell-based; remark: listed apart in the source
Experimental: as §2

[22] = system: Pseudomonas aeruginosa (Pa); assay type: cell-based; remark: listed apart in the source
Experimental: as §2

[23] = system: Staphylococcus epidermidis (Se); assay type: cell-based; remark: listed apart in the source
Experimental: as §2

[24] = system: Staphylococcus pseudintermedius (Sp); assay type: cell-based; remark: listed apart in the source
Experimental: as §2

[25] = system: Streptococcus agalactiae (Sa); assay type: cell-based; remark: listed apart in the source
Experimental: as §2

[26] = system: Streptococcus dysgalactiae (Sd); assay type: cell-based; remark: listed apart in the source
Experimental: as §2

[27] = system: Streptococcus suis (Ss); assay type: cell-based; remark: listed apart in the source
Experimental: as §2

[28] = system: Streptococcus uberis (Su); assay type: cell-based; remark: listed apart in the source
Experimental: as §2

[29] = system: E. coli (Ec); assay type: cell-based; details: Ec; remark: listed apart in the source
Experimental: as §2
(§3) In addition, several peptides expressed preferential activity vs. biofilms (MBIC) cf. planktonic cells (MIC) (Table 20).

[30] = system: S. aureus (Sau); assay type: cell-based; details: Sau; remark: listed apart in the source
Experimental: as §2, §3

[31] = system: planktonic methicillin resistant S. aureus; assay: microbe, parasite or virus in culture; assay type: cell-based, Staphylococcus aureus; details: planktonic methicillin resistant
[32] = system: PBMCs; assay: Cytotoxicity towards PBMCs, lactate dehydrogenase (LDH) release assay (Tables 6, 7); details: SPOT synthesized peptide ~25 μM, PBMCs from 3 human donors; Table 6

Row | Substance | peptide concentration that inhibited more than 90% of adhered biofilm biomass, E. coli (O157:H7) [1] [µM] | peptide concentration that inhibited more than 90% of adhered biofilm biomass, S. typhimurium (ATCC 14028) [2] [µM] | peptide concentration that inhibited more than 90% of adhered biofilm biomass, S. aureus (C623) [3] [µM] | peptide concentration that inhibited more than 90% of adhered biofilm biomass, P. aeruginosa (PAO1) [4] [µM] | MIC Bb [5] [µg/mL] | MIC Hs [6] [µg/mL] | MIC Mh [7] [µg/mL] | MIC Pm [8] [µg/mL] | MIC Pa [9] [µg/mL] | MIC Se [10] [µg/mL] | MIC Sp [11] [µg/mL] | MIC Sa [12] [µg/mL] | MIC Sd [13] [µg/mL] | MIC Ss [14] [µg/mL] | MIC Su [15] [µg/mL] | MIC E. coli [16] [µg/mL] | MIC Ec [16] [µg/mL] | MIC S. aureus [17] [µg/mL] | MIC Sau [17] [µg/mL] | MBIC [18] [µg/mL] | other results
1 | IWLRLKVVLKRK (not fully specified; also: D-amino acid(s), positions not given here) [Peptide D-3006] | 2 | 2 | 4 | 2 | – | – | – | – | – | – | – | – | – | – | – | – | – | – | – | – | –
2 | KRKLVVKLRLWI ([dK][dR][dK][dL][dV][dV][dK][dL][dR][dL][dW][dI]) [RI-3006] | 4 | 4 | 8 | 4 | – | – | – | – | – | – | – | – | – | – | – | – | – | – | – | – | –
3 | KVVWIKVKIKLV ([dK][dV][dV][dW][dI][dK][dV][dK][dI][dK][dL][dV]) [RI-3007] | 16 | 16 | 16 | 32 | – | – | – | – | – | – | – | – | – | – | – | – | – | – | – | – | –
4 | LWQLWLKLKLKG-NH2 [Peptide 3013, LWQLWLKLKLKG] | – | – | – | – | 16 | 2 | >64 | 32 | >64 | 2 | <1 | 2 | 2 | 64 | 4 | >64 | >64 | >64 | >64 | >64 | MBIC [19]: 4 µg/mL; MBIC [20]: >64 µg/mL; MBIC [21]: 2 µg/mL; MBIC [22]: >64 µg/mL; MBIC [23]: >64 µg/mL; MBIC [24]: 1 µg/mL; MBIC [25]: 32 µg/mL; MBIC [26]: 2 µg/mL; MBIC [27]: 16 µg/mL; MBIC [28]: 8 µg/mL; MBIC [29]: >64 µg/mL; MBIC E. coli [29]: >64 µg/mL; MBIC [30]: 32 µg/mL; MBIC S. aureus [30]: 32 µg/mL; MIC (μM) MHB [31]: 32 µM; MIC (μM) TSB with 1% Glucose [31]: >64 µM; % Toxicity (LDH Release) [32]: 14.1%
5 | QLARLARVVWGL-NH2 [Peptide 3010, QLARLARVVWGL] | – | – | – | – | >64 | 64 | >64 | >64 | >64 | >64 | 64 | >64 | 32 | >64 | 64 | >64 | >64 | >64 | >64 | >64 | MBIC [19]: 64 µg/mL; MBIC [20]: >64 µg/mL; MBIC [21]: 4 µg/mL; MBIC [22]: >64 µg/mL; MBIC [23]: >64 µg/mL; MBIC [24]: 64 µg/mL; MBIC [25]: >64 µg/mL; MBIC [26]: 16 µg/mL; MBIC [27]: >64 µg/mL; MBIC [28]: 32 µg/mL; MBIC [29]: 32 µg/mL; MBIC E. coli [29]: 32 µg/mL; MBIC [30]: 64 µg/mL; MBIC S. aureus [30]: 64 µg/mL; MIC (μM) MHB [31]: >64 µM; MIC (μM) TSB with 1% Glucose [31]: >64 µM; % Toxicity (LDH Release) [32]: −2.4%
6 | RRWIRVAVILRV ([dR][dR][dW][dI][dR][dV][dA][dV][dI][dL][dR][dV]) [RI-1018, reference compound] | 1 | 2 | 8 | 4 | – | – | – | – | – | – | – | – | – | – | – | – | – | – | – | – | –
